Measurements reported in patent US20090118350A1, “Biomarkers for Identifying Efficacy of Tegaserod in Patients with Chronic Constipation” (priority 2005, published 2009).

System: patients with chronic constipation
Test: Clinical trial, secondary efficacy RESP12: increase of 1 or more CSBM/week over baseline after 12 weeks of treatment, by subgroup and genotype
Format: in vivo, human
Settings: for Odds Ratio (T6 v P) / % Responders T6: 6-mg bid
Procedure: Introduction. A clinical trial was performed to evaluate the efficacy of tegaserod (Zelmac®/Zelnorm™) at 6 mg bid (12 mg/day) or 2 mg bid (4 mg/day) vs. placebo by measuring the number of complete spontaneous bowel movements (CSBM) during the first 4 weeks of treatment. Secondary objectives included evaluating the number of CSBM during the entire 12-week treatment period, bowel habits, laxative use, and safety and tolerability issues. The clinical trial design consisted of a 2-week baseline period without medication, a 12-week, randomized, double-blind, placebo-controlled treatment period, and a 4-week withdrawal period without study medication. As part of the clinical trial, DNA was collected from patients at screening for pharmacogenetic analysis to evaluate genetic polymorphisms relating to drug targets and disease aetiology.
Clinical assessments. […] The primary efficacy endpoint evaluated was the increase of 1 or more CSBM/week over baseline after 4 weeks of treatment. A secondary endpoint evaluated in this genotyping study was RESP12, the increase of 1 of more CSBM/week over baseline after 12 weeks of treatment. Patients were classified as responders if they met these criteria and had completed at least 7 days of treatment. Additional secondary efficacy assessments were evaluated based on the weekly diary assessments, such as bothersome constipation, bothersome abdominal pain, and satisfaction with bowel habits at the end of the 12-week treatment period (using the baseline value as a co-variant for analysis).
Statistical analysis. Statistical analysis was performed using SAS version 8.2 (The SAS Institute, Cary, N.C., USA). Analysis methods included Fisher's Exact tests, analysis of Covariance (ANCOVA), logistic regression, and Mantel-Haenzel tests to determine odds ratios and 95% confidence intervals, with significance established at p<0.05. Calculation of linkage disequilibrium was performed using the GOLD (graphical overview of linkage disequilibrium) method described by Abecasis & Cookson, Bioinformatics 16: 182-3 (2000).
Secondary efficacy endpoint: response after 12 weeks of treatment. The same comparison as above was performed using the secondary efficacy endpoint of a mean increase of 1 or more CSBM/week over baseline after 12 weeks of treatment. The results for the 12 individual “high responder” SNPs are presented in TABLE 9 and the results using the comparison of individuals with or without at least one of the twelve SNPs is presented in TABLE 10.

[1] = M + F (<65), 0-12 of the 12 SNPs
[2] = M + F (<65), 1-12 of the 12 SNPs
[3] = M + F (>=65), 0-12 of the 12 SNPs
[4] = M + F (>=65), 1-12 of the 12 SNPs
[5] = M + F (All ages), 0-12 of the 12 SNPs
[6] = M + F (All ages), 0 of the 12 SNPs
[7] = M + F (All ages), 1-12 of the 12 SNPs
[8] = Male (All ages), 0-12 of the 12 SNPs
[9] = Male (All ages), 0 of the 12 SNPs
[10] = Male (All ages), 1-12 of the 12 SNPs

## [H]/N=C(/NCCCCC)N/N=C/c1c[nH]c2ccc(OC)cc12 [tegaserod, Tegaserod]
HTR4 (3753) genotype CC
  Odds Ratio (T6 v P): 3.1
HTR4 (3753) genotype CT
  % Responders T6: 50%
  Odds Ratio (T6 v P): 2.7
HTR4 (3753) genotype TT
  % Responders T6: 70%
  Odds Ratio (T6 v P): 3.5
HTR4 (3754) genotype AA
  % Responders T6: 50%
  Odds Ratio (T6 v P): 4.1
HTR4 (3754) genotype AT
  % Responders T6: 45%
  Odds Ratio (T6 v P): 2.0
HTR4 (3754) genotype TT
  % Responders T6: 63%
  Odds Ratio (T6 v P): 2.8
HTR4 (3756) genotype AA
  % Responders T6: 39%
  Odds Ratio (T6 v P): 2.6
HTR4 (3756) genotype AC
  % Responders T6: 54%
  Odds Ratio (T6 v P): 3.0
HTR4 (3756) genotype CC
  % Responders T6: 71%
  Odds Ratio (T6 v P): 4.6
[1]
  % Responders T6: 49%
  Odds Ratio (T6 v P): 3.0
M + F (<65), 0 of the 12 SNPs
  % Responders T6: 37%
  Odds Ratio (T6 v P): 1.6
[2]
  % Responders T6: 62%
  Odds Ratio (T6 v P): 5.6
[3]
  % Responders T6: 53%
  Odds Ratio (T6 v P): 2.3
M + F (>=65), 0 of the 12 SNPs
  % Responders T6: 29%
  Odds Ratio (T6 v P): 0.4
[4]
  % Responders T6: 70%
  Odds Ratio (T6 v P): 10.1
[5]
  % Responders T6: 49%
  Odds Ratio (T6 v P): 2.8
[6]
  % Responders T6: 36%
  Odds Ratio (T6 v P): 1.3
[7]
  % Responders T6: 63%
  Odds Ratio (T6 v P): 6.0
MLN (1783) genotype CC
  % Responders T6: 49%
  Odds Ratio (T6 v P): 2.6
MLN (1783) genotype CT
  % Responders T6: 44%
  Odds Ratio (T6 v P): 2.2
MLN (1783) genotype TT
  % Responders T6: 67%
  Odds Ratio (T6 v P): 12.0
[8]
  % Responders T6: 57%
  Odds Ratio (T6 v P): 3.0
[9]
  % Responders T6: 40%
  Odds Ratio (T6 v P): 0.8
[10]
  % Responders T6: 73%
  Odds Ratio (T6 v P): 13.3
SCNN1A (3806) genotype GG
  % Responders T6: 62%
  Odds Ratio (T6 v P): 5.9
SCNN1A (3806) genotype GT
  % Responders T6: 49%
  Odds Ratio (T6 v P): 2.6
SCNN1A (3806) genotype TT
  % Responders T6: 44%
  Odds Ratio (T6 v P): 2.2
SLC12A2 (1842) genotype AA
  % Responders T6: 54%
  Odds Ratio (T6 v P): 6.2
SLC12A2 (1842) genotype AG
  % Responders T6: 47%
  Odds Ratio (T6 v P): 2.7
SLC12A2 (1842) genotype GG
  % Responders T6: 50%
  Odds Ratio (T6 v P): 2.5
SLC12A2 (3801) genotype CC
  % Responders T6: 58%
  Odds Ratio (T6 v P): 7.9
SLC12A2 (3801) genotype CT
  % Responders T6: 49%
  Odds Ratio (T6 v P): 2.4
SLC12A2 (3801) genotype TT
  % Responders T6: 50%
  Odds Ratio (T6 v P): 2.9
TPH1 (1756) genotype GG
  % Responders T6: 51%
  Odds Ratio (T6 v P): 6.1
TPH1 (1756) genotype GT
  % Responders T6: 51%
  Odds Ratio (T6 v P): 2.4
TPH1 (1756) genotype TT
  % Responders T6: 45%
  Odds Ratio (T6 v P): 2.2
TPH1 (3784) genotype CC
  % Responders T6: 41%
  Odds Ratio (T6 v P): 1.9
TPH1 (3784) genotype CT
  % Responders T6: 52%
  Odds Ratio (T6 v P): 2.5
TPH1 (3784) genotype TT
  % Responders T6: 51%
  Odds Ratio (T6 v P): 5.8
All genotypes
  % Responders T6: 49%
  Odds Ratio (T6 v P): 2.8
All genotypes (Table 11)
  % Responders T6: 49%
  Odds Ratio (T6 v P): 2.8
High responder genotypes of HTR4, tegaserod-treated patients
  response rate: > 60%
